Values of other authors, collected in US11033578B2, “Nutritional supplement for growth enhancement” (Nutritional Growth Solutions LTD, priority 2013, dated 2021).

Key:
[1] = system: children; settings: meta analysis; 95% CI: 0.46, 2.51
[2] = system: initially stunted infants; settings: daily syrup for six months; vs placebo

[Fe] [iron]
increase in hemoglobin concentrations, effect size [1]: 1.49

zinc [zinc-alone]
mean height for age Z-score [2]: decreased to a greater extent than placebo
